We go through nine molecules from US5324728A, “Naphthoic acid derivative” (Fujirebio Inc., priority 1990, dated 1994).

For orientation: IC50 means the midpoint of a concentration-inhibition curve. One may read the inhibition as the change of the read-out against control, counted positive when it falls.

In one assay the target is T1, 5-lipoxygenase (Rattus norvegicus, UniProt P12527).
T1 construct: The resulting supernatant liquid was used as an enzymatic solution; endogenous in cells; host or cells: rat basophil leukemia-1 (RBL-1) cells, supernatant after sonication
T1 sequence (P12527 1-673): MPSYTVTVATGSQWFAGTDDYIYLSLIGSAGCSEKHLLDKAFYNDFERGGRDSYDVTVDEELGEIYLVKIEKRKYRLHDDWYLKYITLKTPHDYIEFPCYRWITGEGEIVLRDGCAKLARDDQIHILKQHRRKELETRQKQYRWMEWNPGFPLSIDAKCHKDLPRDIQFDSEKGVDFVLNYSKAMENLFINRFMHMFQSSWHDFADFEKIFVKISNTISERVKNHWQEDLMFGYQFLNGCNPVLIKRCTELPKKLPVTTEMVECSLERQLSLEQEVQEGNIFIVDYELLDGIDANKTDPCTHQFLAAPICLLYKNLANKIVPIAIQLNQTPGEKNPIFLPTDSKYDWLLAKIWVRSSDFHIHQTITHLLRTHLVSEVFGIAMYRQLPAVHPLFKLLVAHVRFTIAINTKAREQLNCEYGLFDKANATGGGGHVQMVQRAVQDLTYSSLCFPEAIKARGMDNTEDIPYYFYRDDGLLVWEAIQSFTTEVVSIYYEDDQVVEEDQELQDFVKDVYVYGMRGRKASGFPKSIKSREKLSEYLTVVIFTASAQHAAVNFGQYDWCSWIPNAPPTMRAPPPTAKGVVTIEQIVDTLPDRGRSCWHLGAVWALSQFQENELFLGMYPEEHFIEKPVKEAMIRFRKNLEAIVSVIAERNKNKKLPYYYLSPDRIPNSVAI
Briefly: 5-Lipoxygenase activity-inhibiting action (5-HETE biosynthesis, rat basophil leukemia-1 cell supernatant). Format: biochemical. Here is the method:
5-Lipoxygenase activity-inhibiting action
Rat basophil leukemia-1 cells were suspended in a 50 mM phosphate buffer solution (PBS) of pH 7.0 containing 1 mM of EDTA, 0.1% of gelatin and 14 μM of indometacin so that the resulting suspension contained 5×10^7 cels cells/ml ml. The suspension was subjected to an ultrasonic treatment and then to centrifugation (10,000G, 20 minutes). The resulting supernatant liquid was used as an enzymatic solution. 10 μl of a test compound solution was added to 460 μl of the enzymatic solution and a reaction was conducted at 37° C. for 5 minutes. Thereto were added 7.4 KBq of ^14 C-arachidonic acid and a 100 mM aqueous calcium chloride solution, and a reaction was conducted at 37° C. for 10 minutes. The reaction mixture was ice-cooled and then adjusted to pH 3 with 1N hydrochloric acid to terminate the reaction. Thereafter, extraction with 5 ml of chloroform was conducted. The extract was subjected to evaporation to dryness in the presence of nitrogen gas, and the residue was dissolved in a 2:1 mixture of chloroform and methanol. The solution was developed by thin-layer chromatography using Kieselgel 60 F254, according to the method of Jakschik, B. A. et al. [Biachen. Biophys. Res. Commun. 95, 103 (1980)]. The radioactivity of 5-hydroxyeicosatetraenoic acid (5-HETE) was measured by a liquid scintillation counter (LSC-900 manufactured by Aroka) to determine the ratio of 5-HETE biosynthesis inhibition of test compound-added group to control group, after which there was determined a concentration of test compound at which the activity of 5-lipoxygenase was inhibited by 50%, i.e. an IC50. The test compound was used in a diluted form by dissolving it in dimethyl sulfoxide. The results are shown in Tables 1, 2 and 3 which appear later.

Another assay deals with mast cells. Briefly: Membrane-stabilizing action (mast cell degranulation). The class given is cell-based. The following applies: Rattus norvegicus, 10^-4 M. Here is the method:
Membrane-stabilizing action
This test was conducted according to the method of Schwartz, J. et al. [Int. Arch. Allergy 30, 67 (1966)].
That is, 10 ml each of Hnak's balanced salt solution containing 10 units/ml of heparin was administered to rats intraperitoneally. After gentle massage of the abdomen for 2 minutes, peritoneal exudate cells (PEC) were obtained and washed 3 times with PBS containing 0.1% of bovine serum albumin (BSA). Mast cells in the suspension of PEC were stained with 0.2% of Neutral Red, and PEC were adjusted to a concentration of 4×10^5 mast cells/ml using PBS containing 0.1% of BSA. The cell suspension (50 μl) was incubated with 50 μl of a test compound solution at 37° C. for 5 minutes, then challenged with anti-egg albumin rat serum (50 μl, 1:40) and egg albumin (50 μl, 10 mg/ml) and further incubation was performed for 10 minutes. The reaction mixture was ice-cooled to terminate the reaction. Thereafter the number of mast cells undergoing degranulation was assessed under microscope observation to determine the menbrane-stabilizing action of the test compound.

The subject of another assay is tracheal chain. The experiment in a line: Histamine antagonism (isolated guinea pig tracheal chain contraction). The following applies: Cavia porcellus, 5 min; 10^-5 M test compound; 3×10^-5 M histamine hydrochloride. Format: cell-based. Here is the method:
Guinea pigs were sacrificed and the tracheae were isolated. Each trachea was cut open at the center of the tracheal cartilage, and was cut in the vertical direction to separate into individual segments. Three of these segments were combined to form a tracheal chain. The tracheal chain was suspended in a Magnus tube filled with a Tyrode's solution (NaCl: 137 mX, KCl: 2.7 mM, CaCl2 : […], MgCl2 : 1.1 mM, NaHPO4 : 0.4 mM, NaHCO3 : 12.0 mM, glucose: 5.6 mM) kept at 37° C., while applying a load of 0.5 g. A mixed gas consisting of 95% of O2 and 5% of CO2 was constantly passed through the tube, and the contraction of the smooth muscle was recorded on a polygraph (U-228 manufactured by NIPPON DENKI KAGAKU) via an isotonic transducer (TD-112S manufactured by Nihon Koden). Each test compound was incubated for 5 minutes before the addition of 3×10^-5 M of histamine hydrochloride (a product of Wako Pure Chemical Industries, Ltd.).

In the next assay the target is T2, TXA2 synthetase (Homo sapiens, UniProt P24557).
T2 construct: human platelet microsome fraction; purchased Funakoshi: Eldan Tech; host or cells: human platelet microsome fraction (thromboxane synthetase kit)
T2 sequence (P24557 1-533): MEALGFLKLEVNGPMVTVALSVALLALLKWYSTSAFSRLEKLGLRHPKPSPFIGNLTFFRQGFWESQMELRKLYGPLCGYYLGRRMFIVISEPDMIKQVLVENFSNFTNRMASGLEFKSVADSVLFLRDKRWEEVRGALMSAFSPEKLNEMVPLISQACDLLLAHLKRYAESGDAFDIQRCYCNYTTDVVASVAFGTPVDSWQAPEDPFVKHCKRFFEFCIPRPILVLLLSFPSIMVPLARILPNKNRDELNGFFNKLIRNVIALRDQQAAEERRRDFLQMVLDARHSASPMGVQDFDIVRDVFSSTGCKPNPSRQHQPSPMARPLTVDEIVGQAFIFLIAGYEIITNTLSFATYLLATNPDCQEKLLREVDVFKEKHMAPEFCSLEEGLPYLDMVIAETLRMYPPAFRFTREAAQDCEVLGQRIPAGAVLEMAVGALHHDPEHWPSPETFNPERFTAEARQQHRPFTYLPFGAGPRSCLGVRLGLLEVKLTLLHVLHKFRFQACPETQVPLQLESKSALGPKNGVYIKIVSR
Briefly: TX synthesis-inhibiting action (thromboxane synthetase kit, human platelet microsome). Format: biochemical. Conditions: 3 × 10^-6 M. Here is the method: TX synthesis-inhibiting action
TXA2 synthetase activity was measured by the use of a thromboxane synthetase kit (Funakoshi: Eldan Tech). That is, 0.97 mg of a human platelet microsome fraction was suspended in 1 m of a 50 mM tris-0.1M sodium chloride buffer solution of pH 7.5, and the resulting suspension was ice-cooled. […] of the suspension was placed in a sample tube and a test compound was added thereto. The resulting mixture was preincubated at 25° C. exactly for 3 minutes. Thereto was added 2μ of an ice-cooled acetone solution containing 0.05 mg/m of PGH2, and the resulting mixture was incubated at 25° C. exactly for 3 minutes. 10μ of a 0.25 mM FeCl2 solution was added to terminate the reaction. The resulting mixture was allowed to stand at room temperature for 15 minutes and then subjected to centrifugation at 1,000 G at 4° C. for 10 minutes. The TXB2 content contained in the supernatant was measured by RIA (thromboxanes B2 [3H] RIA Kit: NEN Research Products). The test compound was dissolved in DMSO or distilled water before use. The test was performed in triplicate or quadruplicate assays.

`O=C(NCCN1CCC(OC(c2ccccc2)c2ccccc2)CC1)c1cc2cccc(OCc3cccnc3)c2cc1O` [Example 42, N-[2-[4-(benzhydryloxy)piperidino]ethyl]-3-hydroxy-5-(3-pyridylmethoxyl)-2-naphthamide]: it took 5100 nM to reach half-maximal inhibition on 5-lipoxygenase (Table 1) (IC50). This molecule also returned an inhibition at 100 µM with mast cells of 60.1%.

`O=C(NCCN1CCC(OC(c2ccccc2)c2ccccc2)CC1)c1cc2cccc(OCc3ccncc3)c2cc1O` [Example 43, N-[2-[4-(benzhydryloxy)piperidino]ethyl]-3-hydroxy-5-(4-pyridylmethoxyl)-2-naphthamide] had an inhibition at 10 µM with tracheal chain of 48.2%. Moreover, the inhibition at 3 µM against TXA2 synthetase worked out at 75.6%. This molecule gave an IC50 against 5-lipoxygenase (Table 2) of 110 nM. Further, in the assay on mast cells, the inhibition at 100 µM stood at 80.7%.

The molecule `CC(=O)Oc1cccc2cc(C(=O)NCCN3CCN(CCSC(c4ccncc4)c4ccc(Cl)cc4)CC3)c(O)cc12` (stereo not drawn) [Example 15] had an inhibition at 3 µM at TXA2 synthetase of 73.2%. Further, half-maximal inhibition on 5-lipoxygenase (Table 3) (IC50) required 300 nM.

Regarding `O=C(NCCN1CCC(OC(c2ccccc2)c2ccccc2)CC1)c1cc2cccc(O)c2cc1O` [Example 34, N-[2-[4-(benzhydryloxy)piperidino]ethyl]-3,5-dihydroxy-2-naphthamide], in the assay with tracheal chain, the inhibition at 10 µM was 64.7%. Also, the concentration for half-maximal inhibition (IC50) on 5-lipoxygenase (Table 1) amounted to 150 nM. The molecule further registered an inhibition at 100 µM with mast cells of 41%.

The molecule `O=C(NCCN1CCC(OC(c2ccccc2)c2ccccc2)CC1)c1cc2cc(O)ccc2cc1O` [Example 35, N-[2-[4-(benzhydryloxy)piperidino]ethyl]-3,7-dihydroxy-2-naphthamide] displayed an inhibition at 10 µM in the assay with tracheal chain of 67.9%. At 5-lipoxygenase (Table 2), this molecule yielded an IC50 of 270 nM.

In the case of `O=C(NCCN1CCN(CCSC(c2ccc(Cl)cc2)c2ccc(Cl)cc2)CC1)c1cc2cccc(O)c2cc1O` [Example 21], the IC50 against 5-lipoxygenase (Table 1) amounted to 250 nM. Also, testing at 100 µM in the assay with mast cells gave an inhibition of 100%.

At 5-lipoxygenase (Table 1), `CC(=O)Oc1cccc2cc(C(=O)NCCN3CCN(CCSCc4cccs4)CC3)c(O)cc12` [Example 4, N-[2-[4-(thienylmethylthio)ethyl-1-piperazinyl]ethyl]-5-acetoxy-3-hydroxy-2-naphthamide] registered an IC50 of 320 nM. The molecule also registered an inhibition at 100 µM in the assay with mast cells of 53.7%.

On TXA2 synthetase, `O=C(NCCCCCSCc1cccs1)c1cc2cccc(O)c2cc1O` [Example 44, N-[5-(2-thienylmethylthio)pentyl]-3,5-dihydroxy-2-naphthamide] displayed an inhibition at 3 µM of 61.8%.

For the molecule `CC(=O)Oc1cccc2cc(C(=O)NCCN3CCC(OC(c4ccccc4)c4ccccc4)CC3)c(O)cc12` [Example 5, N-[2-[4-(benzhydryloxy)piperidino]ethyl]-5-acetoxy-3-hydroxy-2-naphthamide], at 10 µM the inhibition in the assay with tracheal chain was 65.4%. Further, 410 nM corresponded to half-maximal inhibition against 5-lipoxygenase (Table 1) (IC50). In addition, in the assay with mast cells, the inhibition at 100 µM turned out to be 96.5%.
